Measured values taken from US20230203058A1, “MACROCYCLIC DIAMINE DERIVATIVES AS ENT INHIBITORS FOR THE TREATMENT OF CANCERS, AND COMBINATION THEREOF WITH ADENOSINE RECEPTOR ANTAGONISTS” (ITEOS BELGIUM SA, priority 2020, published 2023).

Columns and labels:
[1] = test system: CMV peptide-specific CD8+ T cells; assay: CMV antigen recall assay (FIG. 3); format: cell-based, human; conditions: ATP 300 µM, 7 days, with IL-2, IL-7, nivolumab
Protocol: FIG. 3 depicts a bar graph of percent tetramer. PBMCs from a healthy volunteer donor with previous history of CMV infection and known HLA-A*02 subtype were cultured for 7 days with a peptide ([…]) derived from the immunodominant CMV antigen pp65 alongside IL-2, IL-7 and the anti-PD1 antibody nivolumab. ATP was added to the cultures as a source of adenosine, alongside the ENT1 inhibitor molecules as indicated. Expansion of the peptide-specific CD8^+ T cell population was monitored via flow cytometry using […]-MHC-I tetramers linked with BV421. ** = p < 0.01; * = p < 0.05; derived from one-way ANOVA with Tukey’s multiple comparisons test from technical replicates in a single experiment.
Frozen vials of PBMCs from a healthy volunteer donor with history of CMV infection and known HLA-A*02 subtype were purchased from ImmuneXperts. Cells were thawed and washed into X-VIVO15 medium containing 5% human serum and 1 mM sodium pyruvate and plated in 96 U bottom plates (1 × 10^6 cells per well). […] On day 7 of culture the cells were harvested and the frequency of CMV-peptide specific CD8^+ T cells was assessed via flow cytometry using […]-MHC-I tetramers (Tetramer Shop) by quantifying the frequency of tetramer^+ cells within the viable CD8^+ T cell gate.

[2] = test system: naive CD4+ T cells cultured with allogeneic monocyte-derived dendritic cells; assay: Mixed leukocyte reaction assay (FIG. 2); format: cell-based, human; conditions: 300 µM ATP; for Rescue of proliferation of naive CD4 T cells in MLR / IFNγ production in MLR: Compound 2 50 nM; for Rescue of proliferation of naive CD4 T cells in MLR: Compound 11 500 nM; for IFNγ production in MLR: Compound 11 500 nM (FIG. 2B)
Protocol: FIG. 2A depicts a bar graph of percent proliferation normalized to no ATP. Naive CD4^+ T cells were cultured with allogeneic monocyte-derived dendritic cells at a ratio of 10:1 for 96 h in the presence of 300 µM ATP as a source of adenosine and the molecules Compound 2 (50 nM), Compound 11 (500 nM) or concentration-matched DMSO. Proliferation of T cells was assessed by CFSE dilution and normalized to the level observed in T cells activated in the absence of ATP.
FIG. 2B depicts two bar graphs, one showing TNF concentration (pg/mL), and the other showing IFNy (pg/mL). Experiment performed as described in FIG. 2A and supernatant sampled for analysis of cytokines by alphaLISA. **** = p < 0.0001; *** = p < 0.001; ** = p < 0.01 and * = p < 0.05; derived from one-way ANOVA with Tukey’s multiple comparisons test.
PBMCs were isolated from buffy coats via centrifugation of fresh whole blood over Lymphoprep using SepMate-50 tubes (both from […] Technologies) according to the manufacturer’s instructions. Naive CD4^+ T cells were isolated from the PBMCs using the Naive CD4^+ T cell Isolation Kit II, human (Miltenyi Biotec) according to the manufacturer’s instructions and cryopreserved in FBS with 10% DMSO until required. CD14^+ monocytes were also isolated from the PBMC samples using CD14 MicroBeads, human (MiltenyiBiotec) according to the manufacturer’s instructions and used on the day of isolation.
Monocytes were resuspended in RPMI (Lonza) with 10% FBS and cultured in a humidified incubator at 37° C. with 5% CO2 for 6 days in the presence of GM-CSF and IL-4 (R&D Systems), each at 50 ng/ml in 24 well plates. On day 3 of culture half of the medium was carefully removed and replaced with fresh medium containing 100 ng/ml of GM-CSF and IL-4.
On day 6 of culture monocyte-derived dendritic cells (MoDCs) were harvested and washed into X-VIVO15 medium containing 5% human male AB serum (Biowest) and 1 mM sodium pyruvate (Lonza). Naive CD4^+ T cells from a different donor were thawed and CFSE-labelled as described above and washed into the same medium as the MoDCs. Finally, 1 × 10^4 MoDCs were cultured with 1 × 10^5 naive CD4^+ T cells in the presence of ATP (Sigma-Aldrich), uridine or uracil in 96 round well bottom plates for 72 h in a humidified incubator at 37° C. with 5% CO2.
Analysis of proliferation of CD4 T cells via CSFE dilution was performed by flow cytometry using a BD LSR Fortessa with data analysis on FlowJo (BD Biosciences). Cytokines were analysed by alphaLISA (Perkin Elmer) according to the manufacturer’s instructions.

hERG ion channel = molecular target: T1, hERG ion channel (Homo sapiens, UniProt Q12809); assay: hERG ion channel inhibition (Patchliner automated patch-clamp, CHO cells); format: cell-based; conditions: whole-cell, room temperature, 6-point curve up to 100 µM
T1 construct: Chinese Hamster Ovary cell lines stably expressing the full-length ion channel; expressed in transfected cells
T1 sequence (Q12809 whole entry): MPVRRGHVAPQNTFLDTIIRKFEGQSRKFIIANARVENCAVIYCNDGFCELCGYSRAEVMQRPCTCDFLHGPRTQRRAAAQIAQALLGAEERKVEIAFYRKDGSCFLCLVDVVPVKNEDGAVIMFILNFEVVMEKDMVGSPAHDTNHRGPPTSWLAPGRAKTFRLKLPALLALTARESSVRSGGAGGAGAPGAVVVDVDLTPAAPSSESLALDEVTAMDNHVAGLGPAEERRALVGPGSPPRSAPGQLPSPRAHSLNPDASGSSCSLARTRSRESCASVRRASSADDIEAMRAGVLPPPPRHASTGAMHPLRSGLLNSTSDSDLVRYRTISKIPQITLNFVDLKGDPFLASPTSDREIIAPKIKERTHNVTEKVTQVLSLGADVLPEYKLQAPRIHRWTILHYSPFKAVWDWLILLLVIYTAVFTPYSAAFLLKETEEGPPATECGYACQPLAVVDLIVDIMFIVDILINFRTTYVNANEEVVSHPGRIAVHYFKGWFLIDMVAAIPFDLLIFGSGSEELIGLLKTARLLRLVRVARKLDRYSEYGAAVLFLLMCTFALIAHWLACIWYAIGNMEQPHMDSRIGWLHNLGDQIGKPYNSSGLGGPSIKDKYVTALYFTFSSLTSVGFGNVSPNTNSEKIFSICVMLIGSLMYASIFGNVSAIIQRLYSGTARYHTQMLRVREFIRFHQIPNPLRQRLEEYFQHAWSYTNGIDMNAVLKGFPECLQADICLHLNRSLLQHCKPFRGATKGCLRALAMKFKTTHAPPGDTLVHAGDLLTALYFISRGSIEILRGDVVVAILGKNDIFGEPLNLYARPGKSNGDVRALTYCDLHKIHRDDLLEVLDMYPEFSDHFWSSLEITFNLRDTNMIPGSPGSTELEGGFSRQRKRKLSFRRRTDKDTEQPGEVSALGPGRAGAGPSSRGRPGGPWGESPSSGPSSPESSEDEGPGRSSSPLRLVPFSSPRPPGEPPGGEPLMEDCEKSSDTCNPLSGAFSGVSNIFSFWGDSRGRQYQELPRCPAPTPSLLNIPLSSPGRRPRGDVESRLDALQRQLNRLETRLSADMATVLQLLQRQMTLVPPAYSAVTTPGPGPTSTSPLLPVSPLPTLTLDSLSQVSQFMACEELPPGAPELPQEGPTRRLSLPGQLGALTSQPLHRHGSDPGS
Protocol: The compounds were tested for inhibition of hERG ion channel. 6-Point concentration-response curves were generated on the Patchliner automated patch-clamp using serial dilutions from a maximum test concentration of 100 µM.
Compounds were solubilised to 33 mM in DMSO before dilution in HBPS to 100 µM. 6-Point concentration-response curves were generated using serial dilutions from the top test concentration. Electrophysiological recordings were made from a Chinese Hamster Ovary cell lines stably expressing the full-length ion channel. Single cell ionic currents were measured in whole-cell configuration at room temperature (21-23° C.) using a Patchliner (Nanion Technologies). The internal solution for hERG contained (mM): 120 KF, 20 KCl, 10 EGTA, 10 HEPES and was buffered to pH 7.3. The external solution (HEPES-buffered saline, HBPS) contained (mM): 138 NaCl, 4.5 KCl, 1.8 CaC12, 1.0 MgC12, 10 HEPES, 10 glucose, buffered to pH7.4. Cells were clamped at a holding potential of -80 mV before a depolarising step appropriate for the hERG channel. Currents were measured from the step and referenced to the holding current. Compounds were incubated for 90 seconds. Concentration-response curves were generated by cumulative addition of compound with concentrations low to high. In all cases, steady-state inhibition was achieved before the next concentration of compound was added.
IC50 values were obtained from a 4-parameter logistic fit of the concentration-response data: […]

Compound | Rescue of proliferation of CMV peptide-specific CD8+ T cells [1] | Production of TNF in MLR ([2]; Compound 2 50 nM (FIG. 2B)) | Rescue of proliferation of naive CD4 T cells in MLR [2] | IFNγ production in MLR [2] | IC50 (hERG ion channel) [nM]
COc1cc(C(=O)O[C@H]2CCCOc3cc(cc(OC)c3OC)C(=O)OCCCN3CCCN(CC2)CC3)cc(OC)c1OC [Compound 2, (12S)-74,75-dimethoxy-6-oxo-5,8-dioxa-1(1,4)-diazepana-7(1,3)-benzenacyclotetradecaphane-12-yl 3,4,5-trimethoxybenzoate] | significant rescue of proliferation | clear restoration with Compound 2, even beyond the control level | near complete rescue | significant and consistent increase | 2500
COc1cc(C(=O)OC2CCCOc3cc(cc(OC)c3OC)C(=O)N(C)CCCN3CCCN(CC2)CC3)cc(OC)c1OC (centres unmarked) [Compound 11, 74,75-dimethoxy-5-methyl-6-oxo-8-oxa-5-aza-1(1,4)-diazepana-7(1,3)-benzenacyclotetradecaphane-12-yl 3,4,5-trimethoxybenzoate] | significant rescue of proliferation |  | weaker restoration | smaller effect | 
